Data taken from publication PMC12463534, “Exploring the Anticancer Properties of 4-Phenylthiazole-Based Ru(II) and Os(II) Metallacycles Featuring 1-Methylimidazole as N-Donor Functionality” (Bioinorganic Chemistry and Applications, 2025).

Legend:
[1] = test system: HCT116 colorectal cancer cell line (2D); experiment: Resazurin assay, HCT116 2D (monolayer) culture; details: read-out: IC50 2D, resazurin assay, 96 h exposure
Protocol: Both models were investigated by the fluorimetric resazurin assay after 96-h exposure.
HCT116 colorectal carcinoma cells (RRID:CVCL_0291 from ATCC) were cultivated in McCoy's 5A medium, supplemented with 10% heat-inactivated fetal bovine serum and 4 mM L-glutamine.
For 2D experiments, HCT116 cells were harvested from culture flasks by trypsinization, seeded in 100-μL aliquots into 96-well microculture plates (CytoOne, TC-treated, from Starlab) in densities of 2 × 10^3 cells per well, and incubated for 24 h prior to exposure to the test compounds. […] Stock solutions of test compounds were prepared in DMF, which were then diluted in McCoy's 5A-supplemented medium (not to exceed a final content of 0.5% v/v of organic solvent in the test plates), and serial dilutions were added in aliquots of 100 μL per well. […] After incubation for 4 h, fluorescence was measured with a microplate reader (Bio-Tek, SynergyHT) at a wavelength of 530 nm, additionally using a reference wavelength of 620 nm.

[2] = Stability and reactivity in aqueous solution (1H-NMR, UV-vis)
Protocol: The exact concentration of the metal complex stock solutions was calculated on weight-in-volume basis. Complexes were dissolved in water in 1–5 mM concentration.
The path length was 1 cm.
^1H-NMR spectroscopic studies were carried out on a Bruker FT-NMR spectrometer AV NEO 500.10 MHz and a Bruker Avance III HD Ascend 500 Plus instrument. All ^1H-NMR spectra were recorded using a standard Bruker noesygppr1d pulse sequence to suppress water resonance. […] Samples contained 10% (v/v) D2O with a complex concentration of ca. 1 mM. Samples were prepared in pH 1.3 aqueous HCl solution or in pH 7.4 PBS.

[3] = test system: A549 lung adenocarcinoma cells; experiment: MTT assay, inhibition of cancer cell growth, A549; details: read-out: 50% inhibitory concentration A549, exposure time 96 h
Protocol: (§1) CH1/PA-1 ovarian teratocarcinoma cells (CH1, RRID: CVCL_4992, provided by L. R. Kelland, CRC Center for Cancer Therapeutics, Institute of Cancer Research, Sutton, UK; confirmed by STR profiling as PA-1 ovarian teratocarcinoma cells at Multiplexion, Heidelberg, Germany), SW480 colon adenocarcinoma (RRID: CVCL_0546), and A549 lung adenocarcinoma cells (NCI-H2618, RRID: CVCL_A549; both cell lines were obtained from the American Type Culture Collection (ATCC), Manassas, VA, USA) were grown as adherent cultures in 75-cm^2 culture flasks (Starlab, Hamburg, Germany) by using minimal essential medium (MEM) supplemented with 1 mM sodium pyruvate, 4 mM L-glutamine, 1% (v/v) nonessential amino acids from 100-fold stock (all purchased from Sigma-Aldrich), and 10% heat-inactivated fetal bovine serum (Serana, Pessin, Germany).
(§2) The 3-(4,5-dimethylthiazol-2-yl)-2,5-diphenyl-2H tetrazolium bromide (MTT, Acros Organics, Geel, Belgium) assay was used to detect the cytotoxicity of the compounds after 96-h incubation. For this purpose, cells were harvested from culture flasks by trypsinization, seeded in 100-μL aliquots into 96-well microculture plates (Starlab, UK) in densities of 1 × 10^3 (CH1/PA-1), 2 × 10^3 (SW480), and 3 × 10^3 (A549) cells per well and incubated for 24 h prior to exposure to the test compounds. Stock solutions of test compounds were prepared in DMF, which were then diluted in MEM (not to exceed a final content of 0.5% v/v of organic solvent in the test plates), and serial dilutions were added in aliquots of 100 μL per well. […] After incubation for 4 h, the medium/MTT mixtures were removed, and the produced formazan crystals were dissolved in 150 μL DMSO per well. Optical densities at 550 nm were measured spectrophotometrically with a ELx808 Absorbance Microplate Reader (Bio-Tek, Winooski, VT, USA) by using a reference wavelength of 690 nm to correct for unspecific absorption.

[4] = test system: G4 forming sequences (h-Telo, bcl2, hTERT, Kit1, Kit2) and dsDNA; experiment: FRET melting assay, G-quadruplex / B-DNA interaction; format: binding, human; details: 60 mM potassium cacodylate pH 7.4, 2 h incubation
Protocol: G4s are DNA secondary motifs that play crucial roles in cancer development. […] The complexes were incubated with different G4 forming sequences: one derived from human telomere-forming (h-Telo) and four corresponding to promoter regions of oncogenes, namely, bcl2, hTERT, Kit1, and Kit2. For comparison, a self-complementary sequence called dsDNA was used to represent B-DNA (Table S2).
FRET experiments were conducted using an Applied Biosystems QuantStudio 6 PCR cycler in a 96-well format equipped with a FAM (6-carboxyfluorescein) filter. Oligonucleotide stock solutions, labelled with FAM and TAMRA (6-carboxytetramethylrhodamine) probes, were diluted to the desired concentration in a 60-mM potassium cacodylate buffer (pH 7.4). To fold the oligonucleotides into their B-DNA or G4 topologies, the solutions were heated to 95°C for 5 min and then allowed to cool slowly to room temperature overnight. The final concentration of the oligonucleotides was 0.2 μM, with a total volume of 30 μL in each well. Metal complexes were dissolved in DMF to prepare 2 mM stock solutions and further diluted with the buffer, where DMF concentration never exceeded 0.05%. Mixtures of oligonucleotides and metal compounds were left at room temperature for 2 h. Data were collected twice, each time in duplicate, over a temperature range of 25°C–95°C, with a ramp of 1°C every 30 s. FAM emission data were normalized from 0 to 1 to compare different datasets. After data normalization, we extrapolated the T1/2 values, i.e., the temperature at which normalized FAM emission is 0.5. The DNA concentration is expressed in strands.

[5] = test system: Balb/c mice; experiment: Toxicity experiments in Balb/c mice (MTD); details: mice, i.p.
Protocol: Finally, we were interested in the anticancer activity of selected complexes of our panel in an in vivo mouse setting. Before injecting the compounds in tumor-bearing mice, toxicity experiments were performed. […] On the last day of therapy, most animals were sacrificed and tissues as well as tumors collected. Only four mice (per group) were kept to get information on the impact of the drugs on the overall survival.

[6] = Conditional stability constant of Ru-MeIm bond and speciation modelling (pH-dependent UV-vis, HypSpec); format: physicochemical
Protocol: Calculation was done with HypSpec software based on the pH-dependent UV–vis spectra recorded after 3 days (Figures S27, S28). With the help of the computed constant, it was possible to model the speciation at various concentrations. […] At pH 6.0, a condition more characteristic of solid tumor tissues, the MeIm ligand tends to dissociate to a greater extent and only 44% and 76% of the original complex is found in solution at 0.1 and 1 μM concentrations, respectively.
The average water ionization constant, pKw, was determined as 13.76 ± 0.01, which is in good agreement with literature data. The initial volume of the samples was 15.0 mL. The complex concentration was 100 or 157 μM at an ionic strength of I = 0.1 M (KCl). Samples were degassed by bubbling purified argon through them for about 10 min prior to the measurements, and the inert gas was also passed over the solutions during the titrations. 0.70-mL batch samples were collected between pH 1 and 11; these samples were kept in dark, and after 2 and 3 days, their pH was remeasured, and the UV–vis spectra were recorded as well. Only small differences were observed between the 2- and 3-day spectra, and always, the 3-day samples were used for further evaluation. The conditional stability constant for 3c was calculated based on the following equilibrium: [RuCym(N,C)(Z)]^(1+n) + MeIm ⇌ [RuCym(N,C) (MeIm)]^+ + Z^n; (Z = Cl^– or H2O; n = −1 or 0). The calculation was done with the HypSpec software. […] The calculated stability constant is a conditional value and applies for I = 0.1 M KCl ionic strength.

[7] = test system: SW480 cells; experiment: DCFH-DA assay, cellular ROS levels; format: cell-based, human; details: 2 h, concentration dependent
[8] = test system: SW480 colon adenocarcinoma cells; experiment: MTT assay, inhibition of cancer cell growth, SW480; details: read-out: 50% inhibitory concentration SW480, exposure time 96 h
Protocol: as §1, §2

Cc1ccc(C(C)C)cc1.Cn1cc[n+]([Ru-]2[c]3cc(S(C)(=O)=O)ccc3-c3csc[n+]32)c1.O=[N+]([O-])[O-] [Compound 3c, [((3-κN)-1-Methylimidazole)(4-(4-(methylsulfonyl)phenyl)thiazolato-κN,κC2′)(η^6-p-cymene)ruthenium(II)] Nitrate]
IC50 [1]: > 200 µM
Sensitivity to chloride: replacement of coordinated MeIm ([2]; 3 M KCl, pH 7.4, UV-vis): could not replace coordinated MeIm
Decomposition at pH 7.4 ([2]; PBS pH 7.4, 1 mM complex, 25°C, within 6 days, 1H-NMR): no decomposition
Behaviour in acidic solution ([2]; pH = 1.0 or 1.3 (HCl), followed in time up to 6 days, 1H-NMR/UV-vis): decomposition
Spectral change at pH 10.0 ([2]; pH = 10.0 (NaOH), within 2 days, UV-vis): no spectral change
IC50 [3]: > 200 µM
Stabilization of oligonucleotides (G4s or B-DNA) [4]: No stabilization
Tolerated dose [5]: at least 50 mg/kg
Conditional stability constant logK′ of Ru(p-cym)-MeIm bond ([6]; I = 0.1 M KCl, 25°C, UV-vis spectra after 3 days, HypSpec): 8.31 ± 0.03
Original complex found in solution ([6]; pH 6.0, 0.1 μM complex, modelled from logK′): 44%
Original complex found in solution ([6]; pH 6.0, 1 μM complex, modelled from logK′): 76%
Intact (nondissociated) complex fraction ([6]; pH 7.4, 0.1 μM complex, modelled from logK′): 78%
Stability of complex by modelled speciation ([6]; pH 7.4, 1 μM and 10 μM complex concentrations): stable
Effect on intracellular ROS levels [7]: constantly decrease ROS levels with increasing concentrations
IC50 [8]: > 200 µM
